pIC50: −log10 of the molar value.
Assays:
Caspase 3 = biological target: T1, Caspase 3 (Homo sapiens, UniProt P42574); assay: Caspase 3 activity assay, Ac-DEVD-AMC substrate; type: biochemical; conditions: Ac-DEVD-AMC 250 nM, Caspase 3 1.6 nM
T1 sequence (P42574 29-175 limits assumed): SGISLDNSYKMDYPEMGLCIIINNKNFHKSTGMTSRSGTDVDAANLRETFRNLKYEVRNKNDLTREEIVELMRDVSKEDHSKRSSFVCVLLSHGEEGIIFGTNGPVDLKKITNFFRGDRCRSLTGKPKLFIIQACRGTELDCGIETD
T1 sequence (P42574 176-277 limits assumed): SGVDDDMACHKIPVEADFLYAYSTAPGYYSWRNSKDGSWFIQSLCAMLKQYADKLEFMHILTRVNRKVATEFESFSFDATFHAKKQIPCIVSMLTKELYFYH
Experimental: Caspase 3 was diluted in Caspase 3 buffer (100 mM Hepes pH 7.5; 10% sucrose; 0.1% CHAPS). Compounds stocks (100 mM) were stored at −20° C. in DMSO. Compounds were tested at different concentrations: from 200 μM to 91 nM.
(§1) Reactions were performed as duplicates in Black 384 well plates (small volume microplates; Greiner; 10 μl final reaction volume). The substrate concentration for caspase 3 specificity assay was 250 nM (Ac-DEVD-AMC; Promega). The concentration of the enzyme (Caspase 3) in specificity assays was 1.6 nM. The concentrations were determined in order to perform specificity assays under initial velocities at fixed substrate concentration. Compounds were pre-incubated with enzymes for 30 minutes at 25° C. Reactions were initiated by addition of substrate to the plates containing the enzymes (+/− compounds) diluted in assay buffer. Reactions were incubated for 60 minutes at 37° C. Reactions were stopped by adding acetic acid (100 mM final). Readings were performed on a Pherastar Fluorescent Reader (BMG). λ Emission 380 nm; λ Excitation=460 nm.

[1] = test system: HCT116 colon cancer cells; assay: HCT116 cell viability and proliferation assay (MTS); type: cell-based; conditions: Homo sapiens, HCT-116, HCT116, 72 hours, read-out: Cell viability (MTS): HCT116 GI50 Day 3
Experimental: HCT116 colon cancer cells were obtained from ATCC (American Type Culture Collection), and maintained in Mc Coy's 5A medium containing 10% FBS, 3 mM glutamine and 1% penicillin/streptomycin. Cells were incubated at 37° C. in a humidified atmosphere containing 5% CO2.
Cell viability was assayed using the MTS technique in 96-well culture plates (CellTiter 96® Aqueous Non-Radioactive Cell Proliferation Assay, Promega) according to the manufacturer's instructions. MTS (3-(4,5-dimethyl-thiazol-2-yl)-5-(3-carboxy-methoxyphenyl)-2-(4-sulfophenyl)-2H-tetra-zolium) is a MTT-derived tetrazolium that is reduced in metabolically active cells into a soluble, cell-permeant formazan. The amount of formazan, detected by its absorbance at 492 nm is proportional to the number of living, metabolically active cells.
10^3 HCT116 cells were seeded per well. 24 hours later, the medium was changed and the cells treated in triplicate with the concentrations of each compound from 100 μM to 50 nM. The compounds were diluted in 100% DMSO, whose final concentration on cells was kept at 0.5%.
Cells were incubated with the compounds for 72 hours, and their viability then assayed by the addition of MTS for 2 hours. Absorbance at 492 nm was measured directly from the 96-well culture plates. GI50 (Growth Inhibition 50) concentrations for each compound were calculated using a sigmoidal variable slope fit (Prism 4.0, Graphpad Softwares). Values represent mean of three independent experiments.

USP7 [2] = biological target: T2, USP7 (Homo sapiens, UniProt Q93009); assay: Direct binding to USP7 by ESI-MS; conditions: 50/50/1 H2O/CH3CN/HCOOH, Vc=120 V, Pi=4 mbar
T2 sequence (Q93009 whole entry): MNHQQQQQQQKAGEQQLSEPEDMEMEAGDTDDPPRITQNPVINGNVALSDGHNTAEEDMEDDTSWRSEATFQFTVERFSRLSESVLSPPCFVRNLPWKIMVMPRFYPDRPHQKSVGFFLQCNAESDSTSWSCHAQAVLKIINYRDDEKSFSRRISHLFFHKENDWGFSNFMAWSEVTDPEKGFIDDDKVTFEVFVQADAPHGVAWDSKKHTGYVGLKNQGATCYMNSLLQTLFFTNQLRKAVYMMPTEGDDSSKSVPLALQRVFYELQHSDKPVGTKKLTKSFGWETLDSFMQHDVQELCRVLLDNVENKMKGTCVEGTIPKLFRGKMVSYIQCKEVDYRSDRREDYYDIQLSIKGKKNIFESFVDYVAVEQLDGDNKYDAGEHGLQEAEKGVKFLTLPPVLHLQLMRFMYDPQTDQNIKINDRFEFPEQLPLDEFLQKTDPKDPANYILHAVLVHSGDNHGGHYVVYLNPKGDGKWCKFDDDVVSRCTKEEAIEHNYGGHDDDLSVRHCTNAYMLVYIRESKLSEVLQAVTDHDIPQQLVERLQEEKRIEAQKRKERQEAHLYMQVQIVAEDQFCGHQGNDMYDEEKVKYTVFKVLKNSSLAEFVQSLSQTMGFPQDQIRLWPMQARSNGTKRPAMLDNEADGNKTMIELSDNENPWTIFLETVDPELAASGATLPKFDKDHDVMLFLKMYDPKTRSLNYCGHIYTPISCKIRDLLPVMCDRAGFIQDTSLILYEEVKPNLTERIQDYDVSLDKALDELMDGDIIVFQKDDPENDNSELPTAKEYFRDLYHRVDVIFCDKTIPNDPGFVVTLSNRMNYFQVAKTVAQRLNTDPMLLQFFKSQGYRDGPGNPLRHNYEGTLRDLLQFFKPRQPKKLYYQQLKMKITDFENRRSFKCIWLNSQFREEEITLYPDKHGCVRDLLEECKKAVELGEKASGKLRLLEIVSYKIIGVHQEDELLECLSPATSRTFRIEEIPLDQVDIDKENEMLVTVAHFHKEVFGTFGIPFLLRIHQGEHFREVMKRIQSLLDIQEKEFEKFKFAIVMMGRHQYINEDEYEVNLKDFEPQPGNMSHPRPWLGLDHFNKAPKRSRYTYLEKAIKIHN

UCH-L3 [3] = biological target: T3, UCH-L3 (Homo sapiens, UniProt P15374); assay: UCH-L3 activity assay, Ub-AMC substrate; type: biochemical; conditions: UbAMC substrate 300 nM, UCH-L3 13 pM
T3 sequence (P15374 1-230): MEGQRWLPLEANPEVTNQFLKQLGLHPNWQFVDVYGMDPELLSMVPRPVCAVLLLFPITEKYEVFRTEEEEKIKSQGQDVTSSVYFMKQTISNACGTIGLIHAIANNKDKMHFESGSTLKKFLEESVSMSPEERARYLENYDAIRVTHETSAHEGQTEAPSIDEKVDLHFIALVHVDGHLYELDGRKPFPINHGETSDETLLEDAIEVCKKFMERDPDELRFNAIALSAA
Experimental: UCH-L3 was diluted in USP buffer (50 mM Tris HCl; 0.5 mM EDTA; 5 mM DTT; 0.01% Triton X-100; Bovine Serum Albumin 0.05 mg·ml^−1 pH7.6). Compounds stocks (100 mM) were stored at −20° C. in DMSO. Compounds were tested at different concentrations: from 200 μM to 91 nM.
as §1, with “UCH-L3” for “caspase 3 specificity assay”, “300” for “250”, “Ub-AMC (Boston Biochem).” for “(Ac-DEVD-AMC; Promega).”, “(UCH-L3)” for “(Caspase 3)”, “13 pM.” for “1.6 nM.”

UCH-L3 [4] = biological target: T3, UCH-L3; assay: HAUbVS competition assay in HEK293 cell lysates, UCH-L3; type: biochemical; conditions: 12.5-200 μM
USP7 [5] = biological target: T2, USP7; assay: HAUbVS competition assay in HEK293 cell lysates, USP7; type: biochemical; conditions: for blocking of HAUbVS labeling of USP7 (anti-USP7 antibody): HEK293 cell lysates, 12.5-200 μM, dose-dependent; for anti-HA immunoblot band at the size corresponding to HA-Ub-VS-USP7: lysed HEK293 cells, different doses, no change of the other bands
USP10 = USP10 (Homo sapiens, UniProt Q14694); assay: HAUbVS competition assay in HEK293 cell lysates, USP10; type: biochemical; conditions: 12.5-200 μM
Chain of USP10 (Q14694 whole entry): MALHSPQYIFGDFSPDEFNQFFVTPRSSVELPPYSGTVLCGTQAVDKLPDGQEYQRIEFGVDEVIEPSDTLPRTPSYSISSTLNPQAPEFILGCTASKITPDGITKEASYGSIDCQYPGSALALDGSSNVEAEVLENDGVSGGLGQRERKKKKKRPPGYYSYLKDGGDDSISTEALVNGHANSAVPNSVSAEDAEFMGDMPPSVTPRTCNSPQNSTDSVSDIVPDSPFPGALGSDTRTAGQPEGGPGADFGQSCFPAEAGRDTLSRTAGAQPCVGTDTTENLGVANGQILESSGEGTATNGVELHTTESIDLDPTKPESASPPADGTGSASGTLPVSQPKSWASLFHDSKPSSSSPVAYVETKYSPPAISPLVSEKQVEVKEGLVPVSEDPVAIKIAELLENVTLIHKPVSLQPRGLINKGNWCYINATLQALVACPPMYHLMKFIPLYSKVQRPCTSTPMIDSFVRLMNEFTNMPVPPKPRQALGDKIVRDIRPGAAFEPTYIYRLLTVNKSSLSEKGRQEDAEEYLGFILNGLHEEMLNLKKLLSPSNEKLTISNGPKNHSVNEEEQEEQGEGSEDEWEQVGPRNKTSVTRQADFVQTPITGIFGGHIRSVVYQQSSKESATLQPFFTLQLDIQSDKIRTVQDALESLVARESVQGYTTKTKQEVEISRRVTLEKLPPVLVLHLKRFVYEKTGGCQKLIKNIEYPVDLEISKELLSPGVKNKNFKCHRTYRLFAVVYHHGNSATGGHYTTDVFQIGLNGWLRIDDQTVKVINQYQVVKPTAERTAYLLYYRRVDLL

SMILES	pIC50 (Caspase 3)	GI50 [1] [µM]	binding to USP7 under dissociating conditions (USP7 [2])	pIC50 (UCH-L3 [3])	blocking of HAUbVS labeling of UCH-L3 (UCH-L3 [4])	blocking of HAUbVS labeling of USP7 (anti-USP7 antibody) (USP7 [5])	anti-HA immunoblot band at the size corresponding to HA-Ub-VS-USP7 (USP7 [5])	blocking of HAUbVS labeling of USP10 (USP10)
O=C(CCc1ccccc1)N1CCC(O)(Cn2cnc3ccccc3c2=O)CC1 [Example 1, 3-{[4-hydroxy-1-(3-phenylpropanoyl)piperidin-4-yl]methyl}-3,4-dihydroquinazolin-4-one]	< 3.70	> 500	no binding was observed	< 3.70				
O=C(CCc1ccccc1)N1CCC(O)(Cn2cnc3cc(Cl)ccc3c2=O)CC1 [Example 2, 7-chloro-3-{[4-hydroxy-1-(3-phenylpropanoyl)piperidin-4-yl]methyl}-3,4-dihydroquinazolin-4-one]	< 3.70	67	no binding was observed	< 3.70	without any cross-reaction	efficiently blocked labeling of USP7	almost completely eliminated	without any cross-reaction
O=C(CCC1CCCC1)N1CCC(O)(Cn2cnc3ccccc3c2=O)CC1 [Example 3, 3-{[1-(3-cyclopentylpropanoyl)-4-hydroxypiperidin-4-yl]methyl}-3,4-dihydroquinazolin-4-one]	< 3.70	93	no binding was observed	< 3.70				
O=C(CCC1CCCC1)N1CCC(O)(Cn2cnc3cc(Cl)ccc3c2=O)CC1 [Example 4, 7-chloro-3-{[1-(3-cyclopentylpropanoyl)-4-hydroxypiperidin-4-yl]methyl}-3,4-dihydroquinazolin-4-one]	< 3.70	19		< 3.70				
CC(Cc1cccs1)C(=O)N1CCC(O)(Cn2cnc3ccccc3c2=O)CC1 (stereo not drawn) [Example 5, 3-({4-hydroxy-1-[2-methyl-3-(thiophen-2-yl)propanoyl]piperidin-4-yl}methyl)-3,4-dihydroquinazolin-4-one]	< 3.70	113	no binding was observed	< 3.70	without any cross-reaction	efficiently blocked labeling of USP7	almost completely eliminated	without any cross-reaction
CC(C)C(=O)N1CCC(O)(Cn2cnc3ccccc3c2=O)CC1 [Example 6, 3-{[4-hydroxy-1-(2-methylpropanoyl)piperidin-4-yl]methyl}-3,4-dihydroquinazolin-4-one]	< 3.70			< 3.70				
COc1cc2ncn(CC3(O)CCN(C(=O)C(C)C)CC3)c(=O)c2cc1OC [Example 7, 3-{[4-hydroxy-1-(2-methylpropanoyl)piperidin-4-yl]methyl}-6,7-dimethoxy-3,4-dihydroquinazolin-4-one]	< 3.70	> 500		< 3.70				
CCC(CC)C(=O)N1CCC(O)(Cn2cnc3cc(Cl)ccc3c2=O)CC1 [Example 9, 7-chloro-3-{[1-(2-ethylbutanoyl)-4-hydroxypiperidin-4-yl]methyl}-3,4-dihydroquinazolin-4-one]	< 3.70			< 3.70				
COc1ccccc1CCC(=O)N1CCC(O)(Cn2cnc3ccccc3c2=O)CC1 [Example 10, 3-({4-hydroxy-1-[3-(2-methoxyphenyl)propanoyl]piperidin-4-yl}methyl)-3,4-dihydroquinazolin-4-one]	< 3.70			< 3.70				
CC(Cc1cccs1)C(=O)N1CCC(O)(Cn2cnc3cc(Cl)ccc3c2=O)CC1 (stereo not drawn) [Example 11, 7-chloro-3-({4-hydroxy-1-[2-methyl-3-(thiophen-2-yl)propanoyl]piperidin-4-yl}methyl)-3,4-dihydroquinazolin-4-one]	< 3.70	25		< 3.70				
O=C(CCc1cccs1)N1CCC(O)(Cn2cnc3ccccc3c2=O)CC1 [Example 12, 3-({4-hydroxy-1-[3-(thiophen-2-yl)propanoyl]piperidin-4-yl}methyl)-3,4-dihydroquinazolin-4-one]	< 3.70	253		< 3.70				
CC(Cc1ccccc1)C(=O)N1CCC(O)(Cn2cnc3ccccc3c2=O)CC1 (stereo not drawn) [Example 13, 3-{[1-(2-benzylpropanoyl)-4-hydroxypiperidin-4-yl]methyl}-3,4-dihydroquinazolin-4-one]	< 3.70	103		< 3.70				
CC(Cc1ccccc1)C(=O)N1CCC(O)(Cn2cnc3cc(Cl)ccc3c2=O)CC1 (stereo not drawn) [Example 14, 3-{[1-(2-benzylpropanoyl)-4-hydroxypiperidin-4-yl]methyl}-7-chloro-3,4-dihydroquinazolin-4-one]	< 3.70	28		< 3.70				

— patent US9546150B2, “Substituted quinazolin-4-ones for inhibiting ubiquitin specific protease 7” (HYBRIGENICS SA, priority 2011, dated 2017)
